Measured values taken from patent publication US8809347B2, “Bicyclic aryl and bicyclic heteroaryl substituted triazoles useful as AXL inhibitors” (Rigel Pharmaceuticals, Inc., priority 2006, dated 2014).

What follows are molecules tested against T1, Axl (Homo sapiens, UniProt P30530) (assay: Phospho-Akt in-cell Western assay (inhibition of Axl activity)). Details: Hela cells; 1 hr pre-treatment; stimulation by Axl-antibody cross-linking; phospho-Akt chemiluminescence normalized to relative cell number.
T1 construct: Cells: Hela cells; endogenous in cells; host or cells: HeLa cells
T1 sequence (P30530 26-894): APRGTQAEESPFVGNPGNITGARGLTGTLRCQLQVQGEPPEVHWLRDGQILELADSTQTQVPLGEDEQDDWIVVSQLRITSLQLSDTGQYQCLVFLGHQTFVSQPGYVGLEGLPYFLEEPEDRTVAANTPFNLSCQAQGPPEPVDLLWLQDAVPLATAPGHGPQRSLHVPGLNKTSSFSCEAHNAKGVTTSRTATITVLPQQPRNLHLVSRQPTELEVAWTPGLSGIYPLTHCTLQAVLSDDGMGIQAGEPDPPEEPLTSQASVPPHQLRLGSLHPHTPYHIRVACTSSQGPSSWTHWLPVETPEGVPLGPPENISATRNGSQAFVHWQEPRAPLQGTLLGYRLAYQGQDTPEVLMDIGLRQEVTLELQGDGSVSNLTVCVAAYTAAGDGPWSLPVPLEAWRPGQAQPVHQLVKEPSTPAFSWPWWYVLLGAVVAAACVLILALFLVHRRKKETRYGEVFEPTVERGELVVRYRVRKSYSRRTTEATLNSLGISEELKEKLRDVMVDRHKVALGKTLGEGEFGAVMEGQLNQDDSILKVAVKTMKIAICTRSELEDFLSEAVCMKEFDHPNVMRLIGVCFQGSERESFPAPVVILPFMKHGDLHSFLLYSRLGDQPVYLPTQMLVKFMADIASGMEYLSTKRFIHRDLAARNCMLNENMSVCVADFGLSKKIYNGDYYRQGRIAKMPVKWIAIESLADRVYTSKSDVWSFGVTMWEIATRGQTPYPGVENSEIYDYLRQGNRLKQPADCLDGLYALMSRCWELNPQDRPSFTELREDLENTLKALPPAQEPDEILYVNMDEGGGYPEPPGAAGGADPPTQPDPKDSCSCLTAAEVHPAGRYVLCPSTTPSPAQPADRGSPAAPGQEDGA
Type: cell-based
`COc1cc2ncnc(-n3nc(Nc4ccc5c(c4)C(=O)NCCCC5)nc3N)c2cc1OC` [Compound 50, N^3-(1-oxo-1,2,3,4,5,6-hexahydrobenzo[c]azocin-9-yl)-1-(6,7-dimethoxyquinazolin-4-yl)-1H-1,2,4-triazole-3,5-diamine] was tested, and the IC50 was under 1000 nM. For `Nc1nc(Nc2ccc(N3CCC(N4CCCCCC4)CC3)nc2)nn1-c1ncnc2c1CCCCCC2` [Compound 51, N^3-(6-(4-(azepan-1-yl)piperidin-1-yl)pyridin-3-yl)-1-(5,6,7,8,9,10-hexahydrocycloocta[d]pyrimidin-4-yl)-1H-1,2,4-triazole-3,5-diamine], the IC50 was under 1000 nM. With `Nc1nc(Nc2ccc(N3CCC(CN4CCCC4)CC3)nc2)nn1-c1ncnc2c1CCCCCC2` [Compound 52, N^3-(6-(4-((pyrrolidin-1-yl)methyl)piperidin-1-yl)pyridin-3-yl)-1-(5,6,7,8,9,10-hexahydrocycloocta[d]pyrimidin-4-yl)-1H-1,2,4-triazole-3,5-diamine] the IC50 was under 1000 nM.
